Literature values as cited in patent US20260224647A1, “Microbial compositions for treating joint inflammation” (Katholieke Universiteit Leuven, priority 2023, published 2026).

System: rheumatoid arthritis
Settings: twice daily administration

Substance: Lactobacillus rhamnosus GG
- Activity of rheumatoid arthritis: no statistically significant differences
